From PubChem BioAssay (NCI)
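Following 48 hours of exposure in 96-well plates, responses at five concentrations were used to interpolate endpoints linearly. Abbreviation: GI50, concentration required for 50% inhibition of growth. TGI marks complete inhibition of growth.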

Tests used:
Experiment in all cases: inhibition of tumour cell growth, NCI panel, 48 h
[1] = tested on: OVCAR-8 ovarian
[2] = tested on: HOP-62 NSCLC
[3] = tested on: A498 renal
[4] = tested on: MALME-3M melanoma
[5] = tested on: PC-3 prostate
[6] = tested on: DU-145 prostate
[7] = tested on: MDA-MB-435
[8] = tested on: M14 melanoma
[9] = tested on: HOP-92 NSCLC
[10] = tested on: UACC-257 melanoma
[11] = tested on: A549 NSCLC
[12] = tested on: U251 CNS
[13] = tested on: NCI/ADR-RES ovarian
[14] = tested on: SK-MEL-28 melanoma
[15] = tested on: RXF 393 renal
[16] = tested on: RPMI-8226 leukemia
[17] = tested on: HL-60(TB) leukemia
[18] = tested on: LOX IMVI melanoma
[19] = tested on: EKVX NSCLC
[20] = tested on: SF-539 CNS
[21] = tested on: HCC-2998 colon
[22] = tested on: SK-MEL-5 melanoma
[23] = tested on: SNB-75 CNS
[24] = tested on: OVCAR-4 ovarian
[25] = tested on: T-47D breast
[26] = tested on: HCT-116 colon
[27] = tested on: SK-OV-3 ovarian
[28] = tested on: ACHN renal
[29] = tested on: CAKI-1 renal
[30] = tested on: K-562 leukemia
[31] = tested on: OVCAR-3 ovarian
[32] = tested on: SNB-19 CNS
[33] = tested on: NCI-H460 lung
[34] = tested on: SW-620 colon
[35] = tested on: OVCAR-5 ovarian
[36] = tested on: KM12 colon
[37] = tested on: UACC-62 melanoma
[38] = tested on: MOLT-4 leukemia
[39] = tested on: NCI-H522 lung
[40] = tested on: HT29 colon
[41] = tested on: MCF7 breast
[42] = tested on: SF-295 CNS
[43] = tested on: NCI-H226 lung
[44] = tested on: IGROV1 ovarian
[45] = tested on: COLO 205 colon
[46] = tested on: CCRF-CEM leukemia
[47] = tested on: SR leukemia
[48] = tested on: MDA-MB-468 breast
[49] = tested on: UO-31 renal
[50] = tested on: SN12C renal
[51] = tested on: BT-549 breast
[52] = tested on: HCT-15 colon
[53] = tested on: 786-0 renal
[54] = tested on: SF-268 CNS
[55] = tested on: SK-MEL-2 melanoma
[56] = tested on: MDA-MB-231 breast
[57] = tested on: NCI-H23 lung
[58] = tested on: TK-10 renal

For `Oc1ccc(Cl)c(Nc2nc(SCCN3CCOCC3)nc3c2cnn3CC(Cl)c2ccc(Br)cc2)c1` (stereo unspecified), the GI50 [1] was 3.89 µM, the TGI [1] was > 100 µM and the GI50 [2] was 6.24 µM. For the same compound, the TGI [2] was > 100 µM, the GI50 [3] was 12.1 µM and the TGI [3] was > 100 µM. It also gave a GI50 [4] of 3.7 µM, a TGI [4] of 19.9 µM and a GI50 [5] of 3.08 µM. The TGI [5] was > 100 µM, the GI50 [6] was 6.33 µM and the TGI [6] was > 100 µM. The GI50 [7] was 4.64 µM, the TGI [7] was > 100 µM and the GI50 [8] was 4.49 µM. For the same compound, the TGI [8] was > 100 µM, the GI50 [9] was 2.57 µM and the TGI [9] was 9.21 µM. The GI50 [10] was 13.7 µM, the TGI [10] was > 100 µM and the GI50 [11] was 4.75 µM. For the same compound, the TGI [11] was 54.1 µM, the GI50 [12] was 5.75 µM and the TGI [12] was > 100 µM. For the same compound, the GI50 [13] was 3.37 µM, the TGI [13] was > 100 µM and the GI50 [14] was 6.03 µM. For the same compound, the TGI [14] was > 100 µM, the GI50 [15] was 1.11 µM and the TGI [15] was 4.77 µM. For the same compound, the GI50 [16] was 3.54 µM, the TGI [16] was > 100 µM and the GI50 [17] was 6.62 µM. The TGI [17] was > 100 µM, the GI50 [18] was 2.97 µM and the TGI [18] was 10.9 µM. For the same compound, the GI50 [19] was 4.64 µM, the TGI [19] was > 100 µM and the GI50 [20] was 4.43 µM. The TGI [20] was > 100 µM, the GI50 [21] was 4.1 µM and the TGI [21] was 25.4 µM. The GI50 [22] was 3.95 µM, the TGI [22] was 15.2 µM and the GI50 [23] was 1.39 µM. The TGI [23] was 6.13 µM, the GI50 [24] was 4.91 µM and the TGI [24] was > 100 µM. The GI50 [25] was 2.88 µM, the TGI [25] was > 100 µM and the GI50 [26] was 3.83 µM. The TGI [26] was > 100 µM, the GI50 [27] was 17.1 µM and the TGI [27] was > 100 µM. The GI50 [28] was 3.62 µM, the TGI [28] was > 100 µM and the GI50 [29] was 6.63 µM. The TGI [29] was > 100 µM, the GI50 [30] was 0.378 µM and the TGI [30] was > 100 µM. The GI50 [31] was 5.5 µM, the TGI [31] was > 100 µM and the GI50 [32] was 8.16 µM. For the same compound, the TGI [32] was > 100 µM, the GI50 [33] was 4.12 µM and the TGI [33] was > 100 µM. For the same compound, the GI50 [34] was 11.3 µM, the TGI [34] was > 100 µM and the GI50 [35] was 7.08 µM. The TGI [35] was 84.6 µM, the GI50 [36] was 5.83 µM and the TGI [36] was > 100 µM. The GI50 [37] was 5.44 µM, the TGI [37] was 24 µM and the GI50 [38] was 3.53 µM. The TGI [38] was > 100 µM, the GI50 [39] was 2.92 µM and the TGI [39] was > 100 µM. The GI50 [40] was 6.22 µM, the TGI [40] was 24.5 µM and the GI50 [41] was 2.93 µM. For the same compound, the TGI [41] was > 100 µM, the GI50 [42] was 3.1 µM and the TGI [42] was 19.1 µM. For the same compound, the GI50 [43] was 5.06 µM, the TGI [43] was > 100 µM and the GI50 [44] was 2.82 µM. It also gave a TGI [44] of 10.3 µM, a GI50 [45] of 18.6 µM and a TGI [45] of 42.3 µM. For the same compound, the GI50 [46] was 3.17 µM, the TGI [46] was > 100 µM and the GI50 [47] was 12.8 µM. The TGI [47] was > 100 µM, the GI50 [48] was 2.2 µM and the TGI [48] was 6.28 µM. For the same compound, the GI50 [49] was 2.04 µM, the TGI [49] was > 100 µM and the GI50 [50] was 3.17 µM. The TGI [50] was > 100 µM, the GI50 [51] was 26.3 µM and the TGI [51] was > 100 µM. For the same compound, the GI50 [52] was 3.27 µM, the TGI [52] was > 100 µM and the GI50 [53] was 15.4 µM. The TGI [53] was 93.3 µM, the GI50 [54] was 4.34 µM and the TGI [54] was > 100 µM. The GI50 [55] was 10.1 µM, the TGI [55] was 36.9 µM and the GI50 [56] was 3.77 µM. For the same compound, the TGI [56] was 17.3 µM, the GI50 [57] was 8.67 µM and the TGI [57] was 47.9 µM. For the same compound, the GI50 [58] was 18.2 µM and the TGI [58] was 54.7 µM.
